Test results: US6426369B1, “Oxethazaine as antimicrobial agent” (Eisai Co., Ltd., priority 1997, dated 2002)
Like-named read-outs stand apart in the source and are kept apart here.

How the values were obtained:
[1] = system: H. pylori; experiment: Antimicrobial activity test 6: oxethazaine in combination with an antibiotic (AMPC, CAM, RXM), checker board method; format: cell-based, Helicobacter pylori; parameters: key to growth of H. pylori: “−” indicates the inhibited growth of H. pylori (presence of antimicrobial activity); “+” indicates the growth of H. pylori (absence of antimicrobial activity); conditions: for combined effect of oxethazaine and CAM / combined effect of oxethazaine and RXM: checker board; for effect of combined use: oxethazaine in combination with AMPC
Source text: The effect of combined use with amoxicillin (AMPC), clarithromycin (CAM) or roxithromycin (RXM) was examined in the same manner as in antimicrobial activity test 1, using the checker board method.

[2] = system: H. pylori; experiment: Antimicrobial activity test 3: oxethazaine in combination with compound (II), checker board method; format: cell-based; conditions: Helicobacter pylori
Source text: In each Table, the concentration of oxethazaine is shown vertically, and the concentration of compound (II) is shown horizontally. In each Table, “−” indicates the inhibited growth of H. pylori (presence of antimicrobial activity), and “+” indicates the growth of H. pylori (absence of antimicrobial activity). […] It is assumed to be present when the MIC of either oxethazaine or PPI is reduced by ½ (when anti-H. pylori activity is not recognized when the concentrations of both oxethazaine and PPI are reduced to ¼, but anti-H. pylori activity is recognized when the concentration of one compound is reduced to ¼ and simultaneously the concentration of the other compound is reduced to ½.).

[3] = Acute toxicity test, single oral dose, rats; format: in vivo, Slc:SD rats; conditions: for LD50: Slc:SD, rat, in vivo, po, single oral dose, read-out: LD50 (Oral administration)
Method: A toxicity test was conducted by orally administering a single dose into 7- to 8-weeks old Slc:SD rats and Slc:ICR mice, each group consisting of 5 females and 5 males (medium; physiological saline).

SMILES: CN(C(=O)CN(CCO)CC(=O)N(C)C(C)(C)Cc1ccccc1)C(C)(C)Cc1ccccc1 [Oxethazaine, 2,2′-[(2-hydroxyethyl)amino]bis[N-(1,1-dimethyl-2-phenylethyl)-N-methylacetamide]]
- growth of H. pylori ([1]; strain 90-397, CAM 1.56 μg/ml, oxethazaine μg/ml: 100, 50, 25, 12.5, 6.25, 3.13, 0): −
- growth of H. pylori ([1]; strain 90-397, CAM 3.13 μg/ml, oxethazaine μg/ml: 100, 50, 25, 12.5, 6.25, 3.13, 0): −
- growth of H. pylori ([1]; strain 90-397, CAM 6.25 μg/ml, oxethazaine μg/ml: 100, 50, 25, 12.5, 6.25, 3.13, 0): −
- growth of H. pylori ([1]; strain 90-397, CAM 12.5 μg/ml, oxethazaine μg/ml: 100, 50, 25, 12.5, 6.25, 3.13, 0): −
- growth of H. pylori ([1]; strain 90-397, CAM 25 μg/ml, oxethazaine μg/ml: 100, 50, 25, 12.5, 6.25, 3.13, 0): −
- growth of H. pylori ([1]; strain 90-397, CAM 50 μg/ml, oxethazaine μg/ml: 100, 50, 25, 12.5, 6.25, 3.13, 0): −
- growth of H. pylori ([1]; strain 90-397, CAM 100 μg/ml, oxethazaine μg/ml: 100, 50, 25, 12.5, 6.25, 3.13, 0): −
- combined effect of oxethazaine and CAM ([1]; strain 90-397): 90-397 (synergism)
- growth of H. pylori ([1]; strain 90-407, CAM 0 μg/ml (oxethazaine alone), oxethazaine μg/ml by row r14-r19: 100, 50, 25, 12.5, 6.25, 3.13): −
- growth of H. pylori ([1]; strain 90-407, CAM 0.006 μg/ml, oxethazaine μg/ml: 100, 50, 25, 12.5, 6.25, 3.13, 0): −
- growth of H. pylori ([1]; strain 90-407, CAM 0.012 μg/ml, oxethazaine μg/ml: 100, 50, 25, 12.5, 6.25, 3.13, 0): −
- growth of H. pylori ([1]; strain 90-407, CAM 0.024 μg/ml, oxethazaine μg/ml: 100, 50, 25, 12.5, 6.25, 3.13, 0): −
- growth of H. pylori ([1]; strain 90-407, CAM 0.05 μg/ml, oxethazaine μg/ml: 100, 50, 25, 12.5, 6.25, 3.13, 0): −
- growth of H. pylori ([1]; strain 90-407, CAM 0.1 μg/ml, oxethazaine μg/ml: 100, 50, 25, 12.5, 6.25, 3.13, 0): −
- growth of H. pylori ([1]; strain 90-407, CAM 0.2 μg/ml, oxethazaine μg/ml: 100, 50, 25, 12.5, 6.25, 3.13, 0): −
- growth of H. pylori ([1]; strain 90-407, CAM 6.25 μg/ml, oxethazaine μg/ml: 100, 50, 25, 12.5, 6.25, 3.13, 0): −
- growth of H. pylori ([1]; strain 90-407, CAM 12.5 μg/ml, oxethazaine μg/ml: 100, 50, 25, 12.5, 6.25, 3.13, 0): −
- growth of H. pylori ([1]; strain 90-407, CAM 25 μg/ml, oxethazaine μg/ml: 100, 50, 25, 12.5, 6.25, 3.13, 0): −
- growth of H. pylori ([1]; strain 90-407, CAM 50 μg/ml, oxethazaine μg/ml: 100, 50, 25, 12.5, 6.25, 3.13, 0): −
- growth of H. pylori ([1]; strain 90-407, CAM 100 μg/ml, oxethazaine μg/ml: 100, 50, 25, 12.5, 6.25, 3.13, 0): −
- combined effect of oxethazaine and CAM ([1]; strain 90-407): 90-407 (additive effect)
- growth of H. pylori ([1]; strain 90-407, oxethazaine 3.13 μg/ml, AMPC 0): +
- growth of H. pylori ([1]; strain 90-407, oxethazaine 6.25 μg/ml, AMPC 0): +
- growth of H. pylori ([1]; strain 90-407, oxethazaine 12.5 μg/ml, AMPC 0): +
- growth of H. pylori ([1]; strain 90-407, oxethazaine 25 μg/ml, AMPC 0): −
- growth of H. pylori ([1]; strain 90-407, oxethazaine 50 μg/ml, AMPC 0): −
- growth of H. pylori ([1]; strain 90-407, oxethazaine 100 μg/ml, AMPC 0): −
- growth of H. pylori ([1]; strain 90-414, oxethazaine 3.13 μg/ml, AMPC 0): +
- growth of H. pylori ([1]; strain 90-414, oxethazaine 6.25 μg/ml, AMPC 0): +
- growth of H. pylori ([1]; strain 90-414, oxethazaine 12.5 μg/ml, AMPC 0): +
- growth of H. pylori ([1]; strain 90-414, oxethazaine 25 μg/ml, AMPC 0): −
- growth of H. pylori ([1]; strain 90-414, oxethazaine 50 μg/ml, AMPC 0): −
- growth of H. pylori ([1]; strain 90-414, oxethazaine 100 μg/ml, AMPC 0): −
- combined effect of oxethazaine and CAM ([1]; strain 90-428): 90-428 (synergism)
- combined effect of oxethazaine and RXM ([1]; strain EH 12): EH 12 (additive effect)
- combined effect of oxethazaine and RXM ([1]; strain EH 13): EH 13 (additive effect)
- combined effect of oxethazaine and RXM ([1]; strain NCTC11637): NCTC11637 (additive effect)
- growth of H. pylori ([1]; strain NCTC11637, oxethazaine 3.13 μg/ml, CAM 0): +
- growth of H. pylori ([1]; strain NCTC11637, oxethazaine 6.25 μg/ml, CAM 0): +
- growth of H. pylori ([1]; strain NCTC11637, oxethazaine 12.5 μg/ml, CAM 0): −
- growth of H. pylori ([1]; strain NCTC11637, oxethazaine 25 μg/ml, CAM 0): −
- growth of H. pylori ([1]; strain NCTC11637, oxethazaine 50 μg/ml, CAM 0): −
- growth of H. pylori ([1]; strain NCTC11637, oxethazaine 100 μg/ml, CAM 0): −
- combined effect of oxethazaine and RXM ([1]; strain NCTC11639): NCTC11639 (additive effect)
- growth of H. pylori ([1]; strain NCTC11639, oxethazaine 3.13 μg/ml, CAM 0): +
- growth of H. pylori ([1]; strain NCTC11639, oxethazaine 6.25 μg/ml, CAM 0): +
- growth of H. pylori ([1]; strain NCTC11639, oxethazaine 12.5 μg/ml, CAM 0): +
- growth of H. pylori ([1]; strain NCTC11639, oxethazaine 25 μg/ml, CAM 0): −
- growth of H. pylori ([1]; strain NCTC11639, oxethazaine 50 μg/ml, CAM 0): −
- growth of H. pylori ([1]; strain NCTC11639, oxethazaine 100 μg/ml, CAM 0): −
- effect of combined use ([1]; the 34th table, strain NCTC11637): NCTC11637 (additive effect)
- effect of combined use ([1]; the 34th table, strain NCTC11639): NCTC11639 (additive effect)
- effect of combined use ([1]; the 35th table, strain NCTC11637): NCTC11637 (additive effect)
- effect of combined use ([1]; the 35th table, strain NCTC11639): NCTC11639 (additive effect)
- effect of combined use ([1]; the 36th table, strain EH 13): EH 13 (additive effect)
- effect of combined use ([1]; the 36th table, strain EH 16): EH 16 (additive effect)
- effect of combined use ([1]; the 37th table, strain EH 13): EH 13 (additive effect)
- effect of combined use ([1]; the 37th table, strain EH 16): EH 16 (additive effect)
- MIC ([2]; NCTC11637, NCTC 11637): 25 µg/mL
- MIC ([2]; NCTC11639, NCTC 11639): 50 µg/mL
- LD50 ([3]; female, Rat ♀): 1070 mg/kg
- LD50 ([3]; male, Rat ♂): ≥ 1000 mg/kg
- LD50 values relative to clinical doses ([3]; oral, rats and mice, clinical doses 15 to 40 mg/day): about 5000 times
